Tested on: cephalosporin C amidase
Test: Conversion of desacetoxycephalosporin C to 7-ADCA by cephalosporin C amidase
Assay type: biochemical, Arthrobacter viscosus ATCC 53594
Method: As already described above, desacetoxycephalosporin C (DOAC) may be converted to 7-aminodesacetoxycephalosporanic acid (7-ADCA) using the enzyme and method of the present invention. This conversion may be illustrated as follows: [drawing 10] Cephalosporin C amidase, prepared as described above in Example 1, was incubated with 2 mg/ml DAOC for 3 hrs at 37° C. The reaction mixture required a pre-chromatography separation step using XAD-16® (Rohm and Haas) macroreticular water insoluble cross linked adsorbent polymer to remove coeluting contaminants. Chromatography was carried out in accordance with the procedures described above in Example 1 (except that the mobile phase consisted of 1 liter deionized water, 1.88 g hexyl sodium sulfonate, 2.025 ml phosphoric acid, and 25 ml acetonitrile, pH 2.75), and established that approximately 0.5 to 1.0% of the original DOAC substrate had been converted to 7-ADCA.

CC1=C(C(=O)O)N2C(=O)C(NC(=O)CCCC(N)C(=O)O)C2SC1 (stereo not shown) [DOAC, desacetoxycephalosporin C]
extent of conversion to 7-ADCA compared with conversion of cephalosporin C to 7-ACA: essentially equivalent to the conversion of cephalosporin C to 7-aminocephalosporanic acid
